Assay results from PubChem BioAssay (NCI).
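GI50 marks 50% less growth. TGI: concentration producing complete growth inhibition.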

What was measured:
Test in all cases: inhibition of tumour cell growth, NCI panel, 384-well format
MDA-MB-231 breast = test system: MDA-MB-231 breast
786-0 renal = test system: 786-0 renal
SF-268 CNS = test system: SF-268 CNS
MDA-MB-468 breast = test system: MDA-MB-468 breast
MDA-MB-435 melanoma = test system: MDA-MB-435 melanoma
HT29 colon = test system: HT29 colon
T-47D breast = test system: T-47D breast
RXF 393 renal = test system: RXF 393 renal
SN12C renal = test system: SN12C renal
SW-620 colon = test system: SW-620 colon
HOP-92 NSCLC = test system: HOP-92 NSCLC
NCI/ADR-RES ovarian = test system: NCI/ADR-RES ovarian
HL-60(TB) leukemia = test system: HL-60(TB) leukemia
EKVX NSCLC = test system: EKVX NSCLC
NCI-H226 lung = test system: NCI-H226 lung
HCC-2998 colon = test system: HCC-2998 colon
OVCAR-4 ovarian = test system: OVCAR-4 ovarian
HCT-15 colon = test system: HCT-15 colon
A549 NSCLC = test system: A549 NSCLC
HOP-62 NSCLC = test system: HOP-62 NSCLC
IGROV1 ovarian = test system: IGROV1 ovarian
UACC-62 melanoma = test system: UACC-62 melanoma
NCI-H322M lung = test system: NCI-H322M lung
MOLT-4 leukemia = test system: MOLT-4 leukemia
OVCAR-3 ovarian = test system: OVCAR-3 ovarian
CCRF-CEM leukemia = test system: CCRF-CEM leukemia
TK-10 renal = test system: TK-10 renal
SK-MEL-28 melanoma = test system: SK-MEL-28 melanoma
HCT-116 colon = test system: HCT-116 colon
DU-145 prostate = test system: DU-145 prostate
CAKI-1 renal = test system: CAKI-1 renal
NCI-H460 NSCLC = test system: NCI-H460 NSCLC
SF-539 CNS = test system: SF-539 CNS
MALME-3M melanoma = test system: MALME-3M melanoma
MCF7 breast = test system: MCF7 breast
SF-295 CNS = test system: SF-295 CNS
COLO 205 colon = test system: COLO 205 colon
PC-3 prostate = test system: PC-3 prostate
OVCAR-8 ovarian = test system: OVCAR-8 ovarian
A498 renal = test system: A498 renal
UACC-257 melanoma = test system: UACC-257 melanoma
SNB-75 CNS = test system: SNB-75 CNS
UO-31 renal = test system: UO-31 renal
LOX IMVI melanoma = test system: LOX IMVI melanoma
SK-MEL-5 melanoma = test system: SK-MEL-5 melanoma
SR leukemia = test system: SR leukemia
U251 glioblastoma = test system: U251 glioblastoma
BT-549 breast = test system: BT-549 breast
HS 578T breast = test system: HS 578T breast
K-562 leukemia = test system: K-562 leukemia
ACHN renal = test system: ACHN renal
M14 melanoma = test system: M14 melanoma
RPMI-8226 leukemia = test system: RPMI-8226 leukemia
NCI-H23 lung = test system: NCI-H23 lung
NCI-H522 lung = test system: NCI-H522 lung
SK-OV-3 ovarian = test system: SK-OV-3 ovarian
SNB-19 CNS = test system: SNB-19 CNS
KM12 colon = test system: KM12 colon

With `Cc1cc(O)c(-c2ccc([C@@H](C)CN(C)C)cc2)c2c1[nH]c(=O)c1sccc12` the GI50 (MDA-MB-231 breast) was 265 nM, the TGI (MDA-MB-231 breast) was 682 nM and the GI50 ([…]-0 renal) was 50 nM. For the same molecule, the TGI (786-0 renal) was 193 nM, the GI50 (SF-268 CNS) was 338 nM and the TGI (SF-268 CNS) was 1420 nM. It also gave a GI50 (MDA-MB-468 breast) of 27.8 nM, a TGI (MDA-MB-468 breast) of 67.1 nM and a GI50 (MDA-MB-435 melanoma) of 444 nM. For the same molecule, the TGI (MDA-MB-435 melanoma) was 1430 nM, the GI50 (HT29 colon) was 1780 nM and the TGI (HT29 colon) was 3270 nM. It also gave a GI50 (T-47D breast) of 1200 nM, a TGI (T-47D breast) of 5800 nM and a GI50 (RXF 393 renal) of 14.6 nM. For the same molecule, the TGI (RXF 393 renal) was 31.7 nM, the GI50 (SN12C renal) was 224 nM and the TGI (SN12C renal) was 571 nM. It also gave a GI50 (SW-620 colon) of 443 nM, a TGI (SW-620 colon) of 1260 nM and a GI50 (HOP-92 NSCLC) of 357 nM. It also gave a TGI (HOP-92 NSCLC) of 2120 nM, a GI50 (NCI/ADR-RES ovarian) of 2060 nM and a TGI (NCI/ADR-RES ovarian) of 4650 nM. The GI50 (HL-60(TB) leukemia) was 19.7 nM, the TGI (HL-60(TB) leukemia) was 37.5 nM and the GI50 (EKVX NSCLC) was 451 nM. The TGI (EKVX NSCLC) was 1500 nM, the GI50 (NCI-H226 lung) was 285 nM and the TGI (NCI-H226 lung) was 662 nM. For the same molecule, the GI50 (HCC-2998 colon) was 197 nM, the TGI (HCC-2998 colon) was 467 nM and the GI50 (OVCAR-4 ovarian) was 199 nM. The TGI (OVCAR-4 ovarian) was 400 nM, the GI50 (HCT-15 colon) was 378 nM and the TGI (HCT-15 colon) was 1390 nM. It also gave a GI50 (A549 NSCLC) of 225 nM, a TGI (A549 NSCLC) of 482 nM and a GI50 (HOP-62 NSCLC) of 206 nM. The TGI (HOP-62 NSCLC) was 401 nM, the GI50 (IGROV1 ovarian) was 362 nM and the TGI (IGROV1 ovarian) was 1270 nM. For the same molecule, the GI50 (UACC-62 melanoma) was 283 nM, the TGI (UACC-62 melanoma) was 888 nM and the GI50 (NCI-H322M lung) was 411 nM. It also gave a TGI (NCI-H322M lung) of 1210 nM, a GI50 (MOLT-4 leukemia) of 156 nM and a TGI (MOLT-4 leukemia) of 295 nM. For the same molecule, the GI50 (OVCAR-3 ovarian) was 189 nM, the TGI (OVCAR-3 ovarian) was 381 nM and the GI50 (CCRF-CEM leukemia) was 199 nM. It also gave a TGI (CCRF-CEM leukemia) of 399 nM, a GI50 (TK-10 renal) of 265 nM and a TGI (TK-10 renal) of 713 nM. For the same molecule, the GI50 (SK-MEL-28 melanoma) was 284 nM, the TGI (SK-MEL-28 melanoma) was 1610 nM and the GI50 (HCT-116 colon) was 200 nM. For the same molecule, the TGI (HCT-116 colon) was 383 nM, the GI50 (DU-145 prostate) was 279 nM and the TGI (DU-145 prostate) was 706 nM. The GI50 (CAKI-1 renal) was 292 nM, the TGI (CAKI-1 renal) was 996 nM and the GI50 (NCI-H460 NSCLC) was 186 nM. The TGI (NCI-H460 NSCLC) was 341 nM, the GI50 (SF-539 CNS) was 133 nM and the TGI (SF-539 CNS) was 369 nM. It also gave a GI50 (MALME-3M melanoma) of 1000 nM, a TGI (MALME-3M melanoma) of 2190 nM and a GI50 (MCF7 breast) of 63.6 nM. The TGI (MCF7 breast) was 217 nM, the GI50 (SF-295 CNS) was 1810 nM and the TGI (SF-295 CNS) was 3680 nM. For the same molecule, the GI50 (COLO 205 colon) was 1990 nM, the TGI (COLO 205 colon) was 4050 nM and the GI50 (PC-3 prostate) was 286 nM. The TGI (PC-3 prostate) was 757 nM, the GI50 (OVCAR-8 ovarian) was 223 nM and the TGI (OVCAR-8 ovarian) was 447 nM. It also gave a GI50 (A498 renal) of 160 nM, a TGI (A498 renal) of 319 nM and a GI50 (UACC-257 melanoma) of 831 nM. For the same molecule, the TGI (UACC-257 melanoma) was 2090 nM, the GI50 (SNB-75 CNS) was 159 nM and the TGI (SNB-75 CNS) was 753 nM. The GI50 (UO-31 renal) was 266 nM, the TGI (UO-31 renal) was 663 nM and the GI50 (LOX IMVI melanoma) was 253 nM. The TGI (LOX IMVI melanoma) was 580 nM, the GI50 (SK-MEL-5 melanoma) was 233 nM and the TGI (SK-MEL-5 melanoma) was 547 nM. The GI50 (SR leukemia) was 75.7 nM, the TGI (SR leukemia) was 179 nM and the GI50 (U251 glioblastoma) was 173 nM. For the same molecule, the TGI (U251 glioblastoma) was 1100 nM, the GI50 (BT-549 breast) was 192 nM and the TGI (BT-549 breast) was 451 nM. For the same molecule, the GI50 (HS 578T breast) was 129 nM, the TGI (HS 578T breast) was 289 nM and the GI50 (K-562 leukemia) was 295 nM. The TGI (K-562 leukemia) was 746 nM, the GI50 (ACHN renal) was 357 nM and the TGI (ACHN renal) was 1240 nM. The GI50 (M14 melanoma) was 413 nM, the TGI (M14 melanoma) was 1250 nM and the GI50 (RPMI-8226 leukemia) was 36.8 nM. For the same molecule, the TGI (RPMI-8226 leukemia) was 108 nM, the GI50 (NCI-H23 lung) was 212 nM and the TGI (NCI-H23 lung) was 446 nM. It also gave a GI50 (NCI-H522 lung) of 180 nM, a TGI (NCI-H522 lung) of 350 nM and a GI50 (SK-OV-3 ovarian) of 171 nM. For the same molecule, the TGI (SK-OV-3 ovarian) was 410 nM, the GI50 (SNB-19 CNS) was 335 nM and the TGI (SNB-19 CNS) was 1110 nM. For the same molecule, the GI50 (KM12 colon) was 286 nM and the TGI (KM12 colon) was 850 nM.
